{"source": "patent US10329302B2", "about": "“Bicyclic-fused heteroaryl or aryl compounds” (Pfizer Inc., priority 2014, dated 2019)", "data": [{"system": "R848-induced TNFα production by human peripheral blood mononuclear cells (PBMCs)", "experiment": "R848 Induced TNFα in Human PBMC Assay", "assay_type": "cell-based", "settings": "Homo sapiens, PBMC, 3 h, read-out: R848-induced TNFa PBMC IC50 (nM)", "units": {"IC50": "nM"}, "values": [{"compound": "CCC1C[C@@H](COc2nccc3cc(C(N)=O)c(OC(C)C)cc23)NC1=O", "note": "(single isomer, unassigned) [Example 113]", "IC50": 53}, {"compound": "COc1cc2c(OC[C@H]3NC(=O)[C@H]4C3[C@H]4C)nccc2cc1C(N)=O", "note": "(stereo in doubt) [Example 285, 7-methoxy-1-(((1R,2S,5R,6R)-6-methyl-4-oxo-3-azabicyclo[3.1.0]hexan-2-yl)methoxy)isoquinoline-6-carboxamide]", "IC50": 1060}, {"compound": "CC[C@@H]1C2[C@@H](COc3nccc4cc(C(N)=O)c(OC)cc34)NC(=O)[C@@H]21", "note": "(stereo in doubt) [Example 301, 1-(((1R,2S,5R,6R)-6-ethyl-4-oxo-3-azabicyclo[3.1.0]hexan-2-yl)methoxy)-7-methoxyisoquinoline-6-carboxamide]", "IC50": 4050}, {"compound": "COc1cc2c(OC[C@H]3NC(=O)[C@@H]4C(CCF)C43)nccc2cc1C(N)=O", "note": "(stereo in doubt) [Example 306, 1-(((1R,2S,5R,6R)-6-(2-fluoroethyl)-4-oxo-3-azabicyclo[3.1.0]hexan-2-yl)methoxy)-7-methoxyisoquinoline-6-carboxamide]", "IC50": 4060}, {"compound": "COc1cc2c(OC[C@H]3NC(=O)[C@@H](F)[C@@H]3C)nccc2cc1C(N)=O", "note": "[Example 203, 1-{[(2S,3R,4S)-4-fluoro-3-methyl-5-oxopyrrolidin-2-yl]methoxy}-7-methoxyisoquinoline-6-carboxamide]", "IC50": 47}, {"compound": "COc1cc2c(OC[C@@H]3NC(=O)C[C@@H]3C)nccc2cc1C(N)=O", "note": "[Example 277, 7-methoxy-1-{[(2R,3S)-3-methyl-5-oxopyrrolidin-2-yl]methoxy}isoquinoline-6-carboxamide]", "IC50": 4420}, {"compound": "CCOc1cc2c(OC[C@H]3NC(=O)[C@@H](F)[C@H]3C)nccc2cc1C(N)=O", "note": "[Example 283, 7-ethoxy-1-{[(2S,3S,4S)-4-fluoro-3-methyl-5-oxopyrrolidin-2-yl]methoxy}isoquinoline-6-carboxamide]", "IC50": 27}, {"compound": "COc1cc2c(OC[C@@H]3C[C@@](F)(C4CCOCC4)C(=O)N3)nccc2cc1C(N)=O", "note": "[Example 284, 1-{[(2S,4R)-4-fluoro-5-oxo-4-(tetrahydro-2H-pyran-4-yl)pyrrolidin-2-yl]methoxy}-7-methoxyisoquinoline-6-carboxamide]", "IC50": 320}, {"compound": "COc1cc2c(OC[C@@H]3C[C@@H](C4CCOCC4)C(=O)N3)nccc2cc1C(N)=O", "note": "[Example 286, 7-methoxy-1-{[(2S,4S)-5-oxo-4-(tetrahydro-2H-pyran-4-yl)pyrrolidin-2-yl]methoxy}isoquinoline-6-carboxamide]", "IC50": 7020}, {"compound": "CCOc1cc2c(OC[C@@H]3C[C@](C)(F)C(=O)N3)ccnc2cc1C(N)=O", "note": "[Example 287, 6-ethoxy-4-{[(2S,4S)-4-fluoro-4-methyl-5-oxopyrrolidin-2-yl]methoxy}quinoline-7-carboxamide]", "IC50": 2300}, {"compound": "COc1cc2c(OC[C@@H]3NC(=O)[C@H](F)[C@@H]3C)nccc2cc1C(N)=O", "note": "[Example 288, 1-{[(2R,3R,4R)-4-fluoro-3-methyl-5-oxopyrrolidin-2-yl]methoxy}-7-methoxyisoquinoline-6-carboxamide]", "IC50": 1810}, {"compound": "COc1cc2c(OC[C@@H]3C[C@@H](C4(O)CCOCC4)C(=O)N3)nccc2cc1C(N)=O", "note": "[Example 289, 1-{[(2S,4S)-4-(4-hydroxytetrahydro-2H-pyran-4-yl)-5-oxopyrrolidin-2-yl]methoxy}-7-methoxyisoquinoline-6-carboxamide]", "IC50": 6270}, {"compound": "COC[C@]1(F)C[C@@H](COc2nccc3cc(C(N)=O)c(OC)cc23)NC1=O", "note": "[Example 292, 1-{[(2S,4R)-4-fluoro-4-(methoxymethyl)-5-oxopyrrolidin-2-yl]methoxy}-7-methoxyisoquinoline-6-carboxamide]", "IC50": 3140}, {"compound": "CCOc1cc2c(OC[C@@H]3C[C@@](F)(CF)C(=O)N3)ccnc2cc1C(N)=O", "note": "[Example 293, 6-ethoxy-4-{[(2S,4S)-4-fluoro-4-(fluoromethyl)-5-oxopyrrolidin-2-yl]methoxy}quinoline-7-carboxamide]", "IC50": 462}, {"compound": "CCOc1cc2c(OC[C@@H]3C[C@@](F)(CF)C(=O)N3)nccc2cc1C(N)=O", "note": "[Example 294, 7-ethoxy-1-{[(2S,4S)-4-fluoro-4-(fluoromethyl)-5-oxopyrrolidin-2-yl]methoxy}isoquinoline-6-carboxamide]", "IC50": 24}, {"compound": "COc1cc2c(OC[C@H]3NC(=O)[C@@H]4C[C@]34C)nccc2cc1C(N)=O", "note": "[Example 295, 7-methoxy-1-{[(1S,2S,5R)-1-methyl-4-oxo-3-azabicyclo[3.1.0]hex-2-yl]methoxy}isoquinoline-6-carboxamide]", "IC50": 67}, {"compound": "COc1cc2c(OC[C@H]3NC(=O)[C@]4(C)C[C@H]34)nccc2cc1C(N)=O", "note": "[Example 297, 7-methoxy-1-{[(1S,2S,5R)-5-methyl-4-oxo-3-azabicyclo[3.1.0]hex-2-yl]methoxy}isoquinoline-6-carboxamide]", "IC50": 7120}, {"compound": "CC[C@]12C[C@H]1C(=O)N[C@@H]2COc1nccc2cc(C(N)=O)c(OC)cc12", "note": "[Example 299, 1-{[(1S,2S,5R)-1-ethyl-4-oxo-3-azabicyclo[3.1.0]hex-2-yl]methoxy}-7-methoxyisoquinoline-6-carboxamide]", "IC50": 49}, {"compound": "CC[C@@H]1[C@H]2C(=O)N[C@H](COc3nccc4cc(C(N)=O)c(OC)cc34)[C@@H]12", "note": "[Example 300, 1-{[(1S,2S,5R)-6-ethyl-4-oxo-3-azabicyclo[3.1.0]hex-2-yl]methoxy}-7-methoxyisoquinoline-6-carboxamide]", "IC50": 931}, {"compound": "COc1cc2c(OC[C@@H]3CCCC(=O)N3)nccc2cc1C(N)=O", "note": "[Example 302, 7-methoxy-1-{[(2S)-6-oxopiperidin-2-yl]methoxy}isoquinoline-6-carboxamide]", "IC50": 1280}, {"compound": "COc1cc2c(OC[C@H]3NC(=O)C[C@H]3C3CC3)nccc2cc1C(N)=O", "note": "[Example 305, 1-{[(2S,3S)-3-cyclopropyl-5-oxopyrrolidin-2-yl]methoxy}-7-methoxyisoquinoline-6-carboxamide]", "IC50": 57}, {"compound": "COc1cc2c(OC[C@H]3NC(=O)[C@@H]4CC[C@H]34)nccc2cc1C(N)=O", "note": "[Example 308, 7-methoxy-1-{[(1S,2S,5R)-4-oxo-3-azabicyclo[3.2.0]hept-2-yl]methoxy}isoquinoline-6-carboxamide]", "IC50": 134}]}, {"system": "R848-induced TNFα production by human peripheral blood mononuclear cells (PBMCs)", "experiment": "R848 Induced TNFα in Human PBMC Assay", "assay_type": "cell-based", "settings": "human PBMC, absence of serum, 3 hours; read-out: R848-induced TNFa PBMC IC50", "units": {"IC50": "nM"}, "values": [{"compound": "CC[C@]1(O)[C@H](F)C(=O)N[C@@H]1COc1nccc2cc(C(N)=O)c(OC)cc12", "note": "[Example 196, 1-{[(2R,3R,4S)-3-ethyl-4-fluoro-3-hydroxy-5-oxopyrrolidin-2-yl]methoxy}-7-methoxyisoquinoline-6-carboxamide]", "IC50": 11}, {"compound": "CC[C@@H]1[C@H](F)C(=O)NC1(O)COc1nccc2cc(C(N)=O)c(OC)cc12", "note": "(stereo partly drawn) [Example 197, 1-{[(3S,4S)-3-ethyl-4-fluoro-2-hydroxy-5-oxopyrrolidin-2-yl]methoxy}-7-methoxyisoquinoline-6-carboxamide]", "IC50": 71}, {"compound": "COc1cc2c(OC[C@H]3NC(=O)[C@@H](F)[C@H]3C(C)O)nccc2cc1C(N)=O", "note": "(stereo partly drawn) [Example 198, 1-{[(2S,3R,4S)-4-fluoro-3-(1-hydroxyethyl)-5-oxopyrrolidin-2-yl]methoxy}-7-methoxyisoquinoline-6-carboxamide]", "IC50": 715}, {"compound": "COc1cc2c(OC[C@@H]3C[C@@](F)(CO)C(=O)N3)cccc2cc1C(N)=O", "note": "[Example 207, 5-{[(2S,4R)-4-fluoro-4-(hydroxymethyl)-5-oxopyrrolidin-2-yl]methoxy}-3-methoxynaphthalene-2-carboxamide]", "IC50": 41}, {"compound": "COc1cc2c(OC[C@@H]3C[C@@](F)(CC(F)(F)F)C(=O)N3)cccc2cc1C(N)=O", "note": "[Example 240, 5-{[(2S,4R)-4-fluoro-5-oxo-4-(2,2,2-trifluoroethyl)pyrrolidin-2-yl]methoxy}-3-methoxynaphthalene-2-carboxamide]", "IC50": 24}, {"compound": "COc1cc2c(OC[C@@H]3C[C@](F)(CC(F)(F)F)C(=O)N3)cccc2cc1C(N)=O", "note": "[Example 241, 5-{[(2S,4S)-4-fluoro-5-oxo-4-(2,2,2-trifluoroethyl)pyrrolidin-2-yl]methoxy}-3-methoxynaphthalene-2-carboxamide]", "IC50": 5760}, {"compound": "[2H]C([2H])([2H])Oc1cc2c(OC[C@H]3NC(=O)[C@@H](F)[C@H]3CC)nccc2cc1C(N)=O", "note": "[Example 338, 1-{[(2S,3S,4S)-3-ethyl-4-fluoro-5-oxopyrrolidin-2-yl]methoxy}-7-[(trideutero)methyloxy]isoquinoline-6-carboxamide]", "IC50": 3}]}, {"biological_target": "human IRAK4 FL (Full Length) (Homo sapiens (Human), UniProt Q9NWZ3)", "sequence (Q9NWZ3 whole entry)": "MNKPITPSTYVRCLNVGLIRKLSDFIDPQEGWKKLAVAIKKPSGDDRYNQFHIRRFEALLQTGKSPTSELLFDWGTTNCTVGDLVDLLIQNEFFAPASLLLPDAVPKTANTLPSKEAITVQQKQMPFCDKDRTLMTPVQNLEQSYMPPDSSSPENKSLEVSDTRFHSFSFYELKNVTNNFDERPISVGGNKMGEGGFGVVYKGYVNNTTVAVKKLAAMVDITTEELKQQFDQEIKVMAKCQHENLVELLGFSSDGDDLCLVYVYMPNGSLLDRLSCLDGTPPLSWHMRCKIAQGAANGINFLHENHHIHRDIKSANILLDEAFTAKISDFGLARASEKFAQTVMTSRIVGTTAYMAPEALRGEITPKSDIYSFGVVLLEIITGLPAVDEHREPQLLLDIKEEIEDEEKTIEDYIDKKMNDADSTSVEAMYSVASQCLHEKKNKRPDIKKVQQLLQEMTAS", "experiment": "IRAK4 Enzymatic DELFIA Assay, Protocol A", "assay_type": "biochemical", "settings": "not given", "units": {"IC50": "nM"}, "values": [{"compound": "CC(C)Oc1cc2c(OC[C@@H]3CCC(=O)N3)ncc(-c3cccc(=O)[nH]3)c2cc1C(N)=O", "note": "[Example 378, 4-(6-oxo-1,6-dihydropyridin-2-yl)-1-{[(2S)-5-oxopyrrolidin-2-yl]methoxy}-7-(propan-2-yloxy)isoquinoline-6-carboxamide]", "IC50": 59}]}, {"biological_target": "human IRAK4 FL (Full Length) (Homo sapiens (Human), UniProt Q9NWZ3)", "experiment": "IRAK4 Enzymatic DELFIA Assay, Protocol A", "assay_type": "biochemical", "settings": "human IRAK4 FL, 0.6 mM ATP (KM); read-out: IRAK4 DELFIA Protocol A IC50", "units": {"IC50": "nM"}, "values": [{"compound": "COc1cc2c(OC[C@H]3NC(=O)[C@H](F)[C@H]3CF)nccc2cc1C(N)=O", "note": "[Example 375, 1-{[(2S,3R,4R)-4-fluoro-3-(fluoromethyl)-5-oxopyrrolidin-2-yl]methoxy}-7-methoxyisoquinoline-6-carboxamide]", "IC50": 0.3}, {"compound": "Cc1ccnc(-c2cnc(OC[C@@H]3CCC(=O)N3)c3cc(OC(C)C)c(C(N)=O)cc23)n1", "note": "[Example 376, 4-(4-methylpyrimidin-2-yl)-1-{[(2S)-5-oxopyrrolidin-2-yl]methoxy}-7-(propan-2-yloxy)isoquinoline-6-carboxamide]", "IC50": 740}, {"compound": "CC(C)Oc1cc2c(OC[C@@H]3CCC(=O)N3)ncc(-c3ncc(Cl)cn3)c2cc1C(N)=O", "note": "[Example 377, 4-(5-chloropyrimidin-2-yl)-1-{[(2S)-5-oxopyrrolidin-2-yl]methoxy}-7-(propan-2-yloxy)isoquinoline-6-carboxamide]", "IC50": 72}, {"compound": "Cc1nccc(-c2cnc(OC[C@@H]3CCC(=O)N3)c3cc(OC(C)C)c(C(N)=O)cc23)n1", "note": "[Example 379, 4-(2-methylpyrimidin-4-yl)-1-{[(2S)-5-oxopyrrolidin-2-yl]methoxy}-7-(propan-2-yloxy)isoquinoline-6-carboxamide]", "IC50": 503}]}]}
